Data from PubChem BioAssay (NCI).
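Interpolation was linear, between the two tested concentrations surrounding the appropriate level; five concentrations were tested over 48 hours in 96-well plates. The concentration for 50% growth inhibition is given as GI50. TGI denotes the concentration required for complete inhibition of growth.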

Tests used:
Assay in all cases: NCI tumour cell line growth inhibition, 48 h; in the data active = GI50 below about 0.43 µM; inactive = the rest
[1] = tested on: UO-31 renal
[2] = tested on: MOLT-4 leukemia
[3] = tested on: IGROV1 ovarian
[4] = tested on: TK-10 renal
[5] = tested on: NCI-H226 lung
[6] = tested on: NCI-H23 lung
[7] = tested on: HT29 colon
[8] = tested on: LOX IMVI melanoma
[9] = tested on: HS 578T breast
[10] = tested on: SR leukemia

CC(=O)[CH-]C(=O)c1ccccc1.CC(=O)[CH-]C(=O)c1ccccc1.CC(C)CCCC(C)[C@H]1CCC2[C@@H]3CC=C4C[C@@H]([O-])CC[C@]4(C)C3CC[C@@]21C.CC(C)CCCC(C)[C@H]1CCC2[C@@H]3CC=C4C[C@@H]([O-])CC[C@]4(C)C3CC[C@@]21C.[Ti+4] (stereo partly drawn)
inactive: GI50 [1] > 100 µM | GI50 [2] > 100 µM | GI50 [3] > 100 µM | GI50 [4] > 100 µM | GI50 [5] > 100 µM | GI50 [6] > 100 µM | GI50 [7] > 100 µM
> 100 µM: TGI [1] | TGI [2] | TGI [3] | TGI [4] | TGI [5] | TGI [6] | TGI [7]

Cn1nc(-c2ccccc2)c(C(=O)/C=C/c2ccc(Cl)cc2)c(N2CCCCC2)c1=O
4.95 µM: TGI [3]
3.03 µM: TGI [1]
6.09 µM: TGI [8]
6.9 µM: TGI [7]
4.65 µM: TGI [2]
14.3 µM: TGI [4]
5.48 µM: TGI [6]

O=C1c2ccccc2-c2oc(=O)c3ccccc3c21
> 100 µM: TGI [1] | TGI [2] | TGI [3] | TGI [4] | TGI [5] | TGI [9] | TGI [6] | TGI [8] | TGI [7]

CC(=O)CC(N)=O
> 100 µM: TGI [1] | TGI [2] | TGI [3] | TGI [4] | TGI [5] | TGI [10] | TGI [6] | TGI [7]

CCOC(=O)NC1C2CC(=O)OC(O2)C1OC(C)=O (stereo not drawn)
inactive: GI50 [9] > 100 µM
> 100 µM: TGI [1] | TGI [2] | TGI [3] | TGI [4] | TGI [10] | TGI [9] | TGI [6] | TGI [8] | TGI [7]

O=C(Nc1ccc(Cl)cc1Cl)C1C(=O)C(=O)N(c2ccc(Cl)cc2Cl)C1=O (stereo not drawn)
84.1 µM: TGI [5]
> 100 µM: TGI [1] | TGI [3] | TGI [4] | TGI [6] | TGI [8] | TGI [7]

CCOC(=O)Cc1ccc2c(c1O)C(=O)c1c(ccc(CC(=O)OCC)c1O)C2=O
> 100 µM: TGI [1] | TGI [2] | TGI [4] | TGI [5] | TGI [10] | TGI [6] | TGI [8] | TGI [7]

CC1=C(C(=O)Nc2cc(=O)n(C)c(=O)n2C)C(c2cccc([N+](=O)[O-])c2)C(C(=O)Nc2cc(=O)n(C)c(=O)n2C)=C(C)N1
> 100 µM: TGI [1] | TGI [2] | TGI [3] | TGI [4] | TGI [5] | TGI [6] | TGI [8] | TGI [7]

O=C(O)c1ccc(Oc2nccc(-c3c(-c4ccc(F)cc4)ncn3C3CCNCC3)n2)cc1
> 25 µM: TGI [1] | TGI [2] | TGI [3] | TGI [4] | TGI [9] | TGI [8] | TGI [7]
inactive: GI50 [1] > 25 µM | GI50 [2] > 25 µM | GI50 [3] > 25 µM | GI50 [4] > 25 µM | GI50 [9] > 25 µM | GI50 [8] > 25 µM | GI50 [7] > 25 µM

CC(C)(C)CC(C)(C)c1cc2c(O)c(c1)Cc1cc(C(C)(C)CC(C)(C)C)cc(c1O)Cc1cc(C(C)(C)CC(C)(C)C)cc(c1O)Cc1cc(C(C)(C)CC(C)(C)C)cc(c1O)Cc1cc(C(C)(C)CC(C)(C)C)cc(c1O)C2
> 100 µM: TGI [1] | TGI [2] | TGI [3] | TGI [4] | TGI [6] | TGI [7]

C=C(C#N)C1OCC2OC(C)(C)OC21 (stereo not drawn)
43.3 µM: TGI [2]
58.5 µM: TGI [4]
> 100 µM: TGI [1] | TGI [3] | TGI [7]
30.4 µM: TGI [8]
34.8 µM: TGI [6]

CCOc1ccc(N=Cc2ccc3cc(C)ccc3n2)cc1
> 100 µM: TGI [1] | TGI [3] | TGI [4] | TGI [5] | TGI [6] | TGI [8] | TGI [7]
76.7 µM: TGI [2]

Cc1cc(-c2nc3sccn3c2/C=N/N=C(N)N)c(C)s1
31.7 µM: TGI [5]
33.7 µM: TGI [6]
31.5 µM: TGI [4]
33.8 µM: TGI [7]
inactive: GI50 [1] 21.1 µM | GI50 [2] 17.6 µM | GI50 [4] 17.4 µM | GI50 [5] 15.4 µM | GI50 [6] 17.7 µM | GI50 [8] 16.4 µM | GI50 [7] 15.6 µM
60.7 µM: TGI [2]
30.5 µM: TGI [8]
36.9 µM: TGI [1]

CC(=O)N1C/C(=C/c2ccc(Cl)cc2)C(=O)/C(=C/c2ccc(Cl)cc2)C1
3.49 µM: TGI [5]
0.619 µM: TGI [7]
0.395 µM: TGI [8]
3.67 µM: TGI [6]
5.24 µM: TGI [9]
2.35 µM: TGI [1]
inactive: GI50 [1] 0.887 µM | GI50 [3] 0.761 µM | GI50 [4] 1.94 µM | GI50 [5] 1.17 µM | GI50 [9] 1.43 µM | GI50 [6] 1.5 µM
active: GI50 [2] 0.249 µM | GI50 [8] 0.184 µM | GI50 [7] 0.254 µM
4.1 µM: TGI [4]
7.58 µM: TGI [2]
2.11 µM: TGI [3]

O=C(CCc1nnc2s/c(=C\c3ccc(Cl)c(Cl)c3)c(=O)n12)Nc1ccc(Cl)c(Cl)c1
74 µM: TGI [10]
39 µM: TGI [8]
> 100 µM: TGI [1] | TGI [3] | TGI [4] | TGI [5] | TGI [6] | TGI [7]
52.6 µM: TGI [2]

O=C(O)Cc1cc(=O)[nH]c2c1/C(=N/O)CCC2
> 100 µM: TGI [1] | TGI [2] | TGI [3] | TGI [4] | TGI [5] | TGI [10] | TGI [6] | TGI [7]

NC1CCC(Nc2nc(NCc3ccc(-c4ccccc4O)nc3)c3ncn(C4CCCC4)c3n2)CC1 (stereo not drawn)
0.21 µM: TGI [7]
active: GI50 [1] 0.0759 µM | GI50 [2] < 0.01 µM | GI50 [3] 0.0345 µM | GI50 [4] 0.0306 µM | GI50 [5] 0.0486 µM | GI50 [10] 0.0354 µM | GI50 [9] < 0.011 µM | GI50 [6] 0.0214 µM | GI50 [7] < 0.01 µM
0.0664 µM: TGI [6]
0.213 µM: TGI [2]
0.404 µM: TGI [5]
2.04 µM: TGI [3]
1.35 µM: TGI [10]
0.545 µM: TGI [1]
1.34 µM: TGI [9]
1.33 µM: TGI [4]

C#CCOCn1cnc2c(Sc3c([N+](=O)[O-])ncn3C)ncnc21
> 100 µM: TGI [1] | TGI [3] | TGI [4] | TGI [5] | TGI [6] | TGI [8] | TGI [7]

C[C@]12CCC(=O)C(O)=C1CC[C@@H]1C2CC[C@]2(C)NC(=O)CCC12 (stereo partly drawn)
> 100 µM: TGI [1] | TGI [2] | TGI [3] | TGI [4] | TGI [5] | TGI [6] | TGI [8] | TGI [7]

COC(=O)C1=C(O)c2cc(-c3ccccc3)c(-c3ccccc3)c(C#N)c2NC(=O)C1
> 100 µM: TGI [1] | TGI [2] | TGI [10] | TGI [6] | TGI [7]
4.74 µM: TGI [3]

O=C1O[C@H](c2ccccc2)[C@@H]2CC3(CCN12)OCCO3
> 100 µM: TGI [1] | TGI [2] | TGI [3] | TGI [4] | TGI [5] | TGI [10] | TGI [6] | TGI [8] | TGI [7]
